Square brackets hold non-standard residues; d marks the D form. Peptide text beside a SMILES is read from it. Ac6c = NC1(C(=O)O)CCCCC1
Key:
E. coli DnaK [1] = molecular target: T1, E. coli DnaK (Escherichia coli, UniProt P0A6Y8); test: Competitive fluorescence polarization Ki; assay type: binding; details: unlabeled peptide competing with Cf-labeled peptide; DnaK 5 µmol/L; 90 + 90 min, 28°C
T1 construct: His6-tag with TEV site ([…]) (N, cleaved yes); made in house; host or cells: E. coli (DE3) Rosetta pLysS
T1 sequence (P0A6Y8 whole entry): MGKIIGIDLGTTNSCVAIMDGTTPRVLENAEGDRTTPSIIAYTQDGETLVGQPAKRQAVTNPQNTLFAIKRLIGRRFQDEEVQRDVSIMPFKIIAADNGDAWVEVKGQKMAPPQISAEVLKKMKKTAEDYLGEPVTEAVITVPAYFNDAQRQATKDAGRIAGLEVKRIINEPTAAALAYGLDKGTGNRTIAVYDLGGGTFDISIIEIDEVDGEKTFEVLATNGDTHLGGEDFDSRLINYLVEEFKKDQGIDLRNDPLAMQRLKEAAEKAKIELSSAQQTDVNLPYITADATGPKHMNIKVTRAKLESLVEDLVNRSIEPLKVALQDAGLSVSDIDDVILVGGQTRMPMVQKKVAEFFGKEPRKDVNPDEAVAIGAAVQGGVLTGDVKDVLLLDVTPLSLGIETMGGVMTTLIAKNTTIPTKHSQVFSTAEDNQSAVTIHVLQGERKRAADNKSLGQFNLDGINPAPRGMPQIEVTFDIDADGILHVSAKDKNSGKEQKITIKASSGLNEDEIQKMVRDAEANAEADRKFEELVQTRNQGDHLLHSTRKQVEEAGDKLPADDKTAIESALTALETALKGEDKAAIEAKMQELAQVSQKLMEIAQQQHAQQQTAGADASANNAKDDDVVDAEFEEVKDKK
Experimental: (§1) The quality of the experimental set up was evaluated by the Z′ factor ([Zhang et al., 1999]) (Supplementary Table S2). […] The obtained FP-values were normalized to the FP-values determined for lead sequence ARV-1502.

S. aureus DnaK [2] = molecular target: T2, S. aureus DnaK (Staphylococcus aureus, UniProt P99110); test: Competitive fluorescence polarization Ki; assay type: binding; details: unlabeled peptide competing with Cf-labeled peptide; DnaK 16 µmol/L; 90 + 90 min, 28°C
T2 construct: His6-tag with TEV site ([…]) (N, cleaved yes); made in house; host or cells: E. coli (DE3) Rosetta pLysS
T2 sequence (P99110 whole entry): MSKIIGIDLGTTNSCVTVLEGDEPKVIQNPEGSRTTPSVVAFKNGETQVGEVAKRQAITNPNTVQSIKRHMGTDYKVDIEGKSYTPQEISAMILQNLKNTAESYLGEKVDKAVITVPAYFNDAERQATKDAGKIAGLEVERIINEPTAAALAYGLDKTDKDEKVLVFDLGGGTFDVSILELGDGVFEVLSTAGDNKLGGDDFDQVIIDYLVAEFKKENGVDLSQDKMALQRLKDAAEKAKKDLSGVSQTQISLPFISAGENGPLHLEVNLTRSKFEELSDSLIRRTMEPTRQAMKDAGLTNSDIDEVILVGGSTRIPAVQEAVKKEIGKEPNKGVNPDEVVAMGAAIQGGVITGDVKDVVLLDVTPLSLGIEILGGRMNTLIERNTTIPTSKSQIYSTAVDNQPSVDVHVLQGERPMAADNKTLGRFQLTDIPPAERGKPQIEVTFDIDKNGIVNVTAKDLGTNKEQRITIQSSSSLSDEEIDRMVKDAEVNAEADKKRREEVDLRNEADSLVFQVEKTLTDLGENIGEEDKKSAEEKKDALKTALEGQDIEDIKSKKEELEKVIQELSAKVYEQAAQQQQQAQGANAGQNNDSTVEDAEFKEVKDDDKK
Experimental: as §1

E. coli DnaK [3] = molecular target: T1, E. coli DnaK; assay type: binding
Experimental: The plate was incubated (90 min, 28°C, dark) and Cf-ARV-1502 (80 nmol/L; 10 µL/well) added. […] Each peptide was screened in duplicate. Control samples either lacked the unlabeled peptide (maximum) or contained Cf-ARV-1502 in buffer (minimum).
as §1

S. aureus DnaK [4] = molecular target: T2, S. aureus DnaK; test: FP peptide binding screening against Cf-ARV-1502; details: screening: DnaK 16 µmol/L, unlabeled peptide 35 µmol/L, duplicate, below 1 = better than ARV-1502
[5] = system: S. aureus DnaK/DnaJ/GrpE-chaperone system; test: ATPase activity assay (malachite green), chaperone system; assay type: biochemical, Staphylococcus aureus; details: peptide screen, 0.3 mmol/L peptide; for ATPase activity of the S. aureus DnaK/DnaJ/GrpE system, normalized to activity without peptide (100%): 37°C, 2 h, triplicates
Experimental: (§2) ATPase activity of E. coli and S. aureus chaperones was studied in the presence of an AMP using a 384-well plate colorimetric assay ([Chang et al., 2008]; [Zahn et al., 2013]). […] The chaperone mix (13.5 µL) was incubated with an aqueous peptide solution (1.5 µL; final concentration 0.3 mmol/L) at 37°C for 30 min in a non-binding 384-well plate (flat bottom, Greiner Bio-One GmbH). Each sample was prepared in triplicates on the same plate. The reaction was started by addition of ATP dissolved in assay buffer (5 µL, 4 mmol/L) and the plate centrifuged (500 × g, 2 min; Allegra™ 21R, Beckmann Coulter, Krefeld, Germany) before incubated (37°C, 2 h). The released phosphate was quantified using an external phosphate dilution series (10–200 µmol/L KH2PO4 in assay buffer) prepared on each plate and treated equally as the samples. The reaction was stopped by adding assay buffer (80 µL) to all samples except the phosphate dilution series. Aliquots of all samples (10 µL) were transferred to a clear 384-well plate (flat bottom, Greiner Bio-One GmbH) and malachite green reagent added (90 µL; mixture of malachite green in water (0.04%, w/v), ammonium molybdate (2%, w/w) in aqueous sulfuric acid (3.5 mol/L), and water at a ratio of 1:1:3.6, v/v/v). After 15 min, the absorbance was recorded at 620 nm on the […]™ microplate reader. The phosphate standard curve was fitted by a hyperbolic equation y = (ax)/(b + x) + c.

[6] = system: E. coli DnaK/DnaJ/GrpE-chaperone system; test: as above; assay type: biochemical, Escherichia coli; details: peptide screen, 0.3 mmol/L peptide; for ATPase activity of the E. coli DnaK/DnaJ/GrpE system, normalized to activity without peptide (100%): 37°C, 2 h, triplicates
Experimental: as §2

Row | Compound | binding to E. coli DnaK, FP-value normalized to ARV-1502 (E. coli DnaK [3]) | binding to S. aureus DnaK, FP-value normalized to ARV-1502 (S. aureus DnaK [4]) | also measured
1 | CC(C)C[C@H](NC(=O)[C@H](Cc1ccc(O)cc1)NC(=O)[C@@H]1CCCN1C(=O)[C@H](CCCNC(=N)N)NC(=O)[C@@H]1CCCN1C(=O)[C@H](CCCCN)NC(=O)[C@H](CCCCN)NC(=O)[C@@H]1CCCN1C(=O)[C@H](CCCNC(=N)N)NC(=O)C1(N)CCCCC1)C(=O)N1CCC[C@H]1C(=O)N[C@@H](Cc1ccccc1)C(=O)N1CCC[C@H]1C(=O)N[C@@H](CCCNC(=N)N)C(=O)N1CCC[C@H]1C(=O)N1CCC[C@H]1C(=O)N[C@@H](CCCNC(=N)N)C(=O)N1CCC[C@H]1C(=O)N[C@H](C(=O)N[C@@H](CCCNC(=N)N)C(N)=O)C(C)C [compound 46] (H-[Ac6c]RPKKPRPYLPFPRPPRPVR-NH2) |  |  | Ki (E. coli DnaK [1]): 0.66 µM; Ki (S. aureus DnaK [2]): 15.6 µM
2 | CC(C)C[C@H](NC(=O)[C@H](Cc1ccc(O)cc1)NC(=O)[C@@H]1CCCN1C(=O)[C@H](CCCNC(=N)N)NC(=O)[C@@H]1CCCN1C(=O)[C@H](Cc1ccccc1)NC(=O)[C@H](Cc1ccccc1)NC(=O)[C@@H]1CCCN1C(=O)[C@H](CCCNC(=N)N)NC(=O)C1(N)CCCCC1)C(=O)N[C@@H](CO)C(=O)N[C@@H](CCCNC(=N)N)C(=O)N1CCC[C@H]1C(=O)N[C@@H](CCCNC(=N)N)C(=O)N1CCC[C@H]1C(=O)N1CCC[C@H]1C(=O)N[C@@H](CCCNC(=N)N)C(=O)N1CCC[C@H]1C(=O)N[C@H](C(=O)N[C@@H](CCCNC(=N)N)C(N)=O)C(C)C [compound 99] (H-[Ac6c]RPFFPRPYLSRPRPPRPVR-NH2) | best binders | best binders | DnaK binding in the screening, in words (E. coli DnaK [3]; FP screening, DnaK variant not stated at the place): best binding
3 | CC(C)C[C@H](NC(=O)[C@H](CO)NC(=O)[C@@H]1CCCN1C(=O)[C@H](CCCNC(=N)N)NC(=O)[C@@H]1CCCN1C(=O)[C@H](CCCCN)NC(=O)[C@H](CC(=O)O)NC(=O)[C@@H]1CCCN1C(=O)[C@H](CCCNC(=N)N)NC(=O)C1(N)CCCCC1)C(=O)N1CCC[C@H]1C(=O)N[C@@H](Cc1ccccc1)C(=O)N1CCC[C@H]1C(=O)N[C@@H](CCCNC(=N)N)C(=O)N1CCC[C@H]1C(=O)N1CCC[C@H]1C(=O)N[C@@H](CCCNC(=N)N)C(=O)N1CCC[C@H]1C(=O)N[C@H](C(=O)N[C@@H](CCCNC(=N)N)C(N)=O)C(C)C [compound 130] (H-[Ac6c]RPDKPRPSLPFPRPPRPVR-NH2) |  |  | Ki (S. aureus DnaK [2]): 8.46 µM
4 | CC(C)C[C@H](NC(=O)[C@H](Cc1ccc(O)cc1)NC(=O)[C@@H]1CCCN1C(=O)[C@H](CCCNC(=N)N)NC(=O)[C@@H]1CCCN1C(=O)[C@H](CCCCN)NC(=O)[C@H](CCCCN)NC(=O)[C@@H]1CCCN1C(=O)[C@H](CCCNC(=N)N)NC(=O)C1(N)CCCCC1)C(=O)N1CCC[C@H]1C(=O)N[C@@H](CCCNC(=N)N)C(=O)N1CCC[C@H]1C(=O)N[C@@H](CCCNC(=N)N)C(=O)N1CCC[C@H]1C(=O)N1CCC[C@H]1C(=O)N[C@@H](CCCNC(=N)N)C(=O)N1CCC[C@H]1C(=O)N[C@H](C(=O)N[C@@H](CCCNC(=N)N)C(N)=O)C(C)C [peptide 2] (H-[Ac6c]RPKKPRPYLPRPRPPRPVR-NH2) |  |  | Ki (E. coli DnaK [1]): 0.6 µM
5 | CC(C)C[C@H](NC(=O)[C@H](Cc1ccc(O)cc1)NC(=O)[C@@H]1CCCN1C(=O)[C@H](CCCNC(=N)N)NC(=O)[C@@H]1CCCN1C(=O)[C@H](Cc1ccccc1)NC(=O)[C@H](Cc1ccccc1)NC(=O)[C@@H]1CCCN1C(=O)[C@H](CCCNC(=N)N)NC(=O)C1(N)CCCCC1)C(=O)N1CCC[C@H]1C(=O)N[C@@H](CCCNC(=N)N)C(=O)N[C@@H](CCCCN)C(=O)N[C@@H](CCCNC(=N)N)C(=O)N1CCC[C@H]1C(=O)N1CCC[C@H]1C(=O)N[C@@H](CCCNC(=N)N)C(=O)N1CCC[C@H]1C(=O)N[C@H](C(=O)N[C@@H](CCCNC(=N)N)C(N)=O)C(C)C [peptide 105] (H-[Ac6c]RPFFPRPYLPRKRPPRPVR-NH2) | best binders | best binders | 
6 | Chex-RPDDPRPDLPRPRPPRPVR-NH2 [compound 53, substituted analog of ARV-1502] |  |  | increase of ATPase activity, S. aureus chaperone system [5]: ≥ 60%
7 | Chex-RPDDPRPKLPRPRPPRPVR-NH2 [compound 54, substituted analog of ARV-1502] |  | best binders | 
8 | Chex-RPDDPRPYLPLPRPPRPVR-NH2 [compound 66, substituted analog of ARV-1502] |  |  | decrease of ATPase activity, E. coli chaperone system [6]: at least 40%; ATPase activity of the E. coli DnaK/DnaJ/GrpE system, normalized to activity without peptide (100%) [6]: below 60%
9 | Chex-RPDDPRPYLPRDRPPRPVR-NH2 [compound 68, substituted analog of ARV-1502] |  |  | decrease of ATPase activity, E. coli chaperone system [6]: 50%
10 | Chex-RPDKPRPDDPRPRPPRPVR-NH2 [compound 107, substituted analog of ARV-1502] |  |  | increase of ATPase activity, S. aureus chaperone system [5]: ≥ 60%
11 | Chex-RPDKPRPDKPRPRPPRPVR-NH2 [compound 108, substituted analog of ARV-1502] | bound neither | bound neither | 
12 | Chex-RPDKPRPDLPRDRPPRPVR-NH2 [compound 117, substituted analog of ARV-1502] |  |  | ATPase activity of the E. coli DnaK/DnaJ/GrpE system, normalized to activity without peptide (100%) [6]: below 60%; increase of ATPase activity, S. aureus chaperone system [5]: ≥ 60%
13 | Chex-RPDKPRPDLPRSRPPRPVR-NH2 [compound 119, substituted analog of ARV-1502] |  |  | ATPase activity of the S. aureus DnaK/DnaJ/GrpE system, normalized to activity without peptide (100%) [5]: more than 160%
14 | Chex-RPDKPRPKSPRPRPPRPVR-NH2 [compound 122, substituted analog of ARV-1502] | bound neither | bound neither | 
15 | Chex-RPDKPRPSLDRPRPPRPVR-NH2 [compound 128, substituted analog of ARV-1502] |  |  | ATPase activity of the E. coli DnaK/DnaJ/GrpE system, normalized to activity without peptide (100%) [6]: below 60%
16 | Chex-RPDKPRPSLPRSRPPRPVR-NH2 [compound 133, substituted analog of ARV-1502] |  | best binders | 
17 | Chex-RPDKPRPYKPDPRPPRPVR-NH2 [compound 160, substituted analog of ARV-1502] |  | best binders | 
18 | Chex-RPDKPRPYSPDPRPPRPVR-NH2 [compound 170, substituted analog of ARV-1502] |  | best binders | 
19 | Chex-RPDKPRPYSPLPRPPRPVR-NH2 [compound 172, substituted analog of ARV-1502] |  | best binders | 
20 | Chex-RPFFPRPKLPRPRPPRPVR-NH2 [compound 90, substituted analog of ARV-1502] | best binders | best binders | 
21 | Chex-RPFFPRPSLPRPRPPRPVR-NH2 [compound 91, substituted analog of ARV-1502] | best binders | best binders | 
22 | Chex-RPFFPRPYLPRSRPPRPVR-NH2 [compound 106, substituted analog of ARV-1502] | best binders | best binders | 
23 | Chex-RPFFPRPYLPSPRPPRPVR-NH2 [compound 101, substituted analog of ARV-1502] | best binders | best binders | 
24 | Chex-RPSSPRPYLPSPRPPRPVR-NH2 [compound 83, substituted analog of ARV-1502] |  |  | ATPase activity of the S. aureus DnaK/DnaJ/GrpE system, normalized to activity without peptide (100%) [5]: more than 160%

From paper PMC8864165, “Functional Effects of ARV-1502 Analogs Against Bacterial Hsp70 and Implications for Antimicrobial Activity” (Frontiers in Chemistry, 2022)
